We go through 7 molecules from patent publication US10792377B2, “Compounds and method for imaging cancer” (Vanderbilt University, priority 2017, dated 2020).

Data set [1] can be described thus: Fluorometry: extinction, quantum yield, fluorescence in DMSO/EtOH. It is filed as physicochemical. Here is the method: The TEMPO- and PROXYL-fluorocoxib probes are non-fluorescent (Φfl<0.3) in their non-trapped form, whereas fluorocoxib A or B are highly fluorescent (Φfl[…]) (FIG. 13). However, the absorbance and fluorescence of the TEMPO- and PROXYL-fluorocoxib probes increases in a time-dependent fashion when incubated in a DMSO/EtOH solution (FIGS. 14-15). Referring to FIG. 15, it is noted that at about 16 hours, fluorescence (ex 586 nm) read about 120,000 cps at 607 nm. Turning to FIG. 16, as compared to 5-ROX acid, which had extinction of 36/mM/cm at 580 nm and quantum yield of 0.94 at 604 nm, and fluorocoxib A, which had extinction of 45/mM/cm at 579 nm and quantum yield of 0.93 at 602 nm, fluorocoxib Q1 had extinction of less than 0.4/mM/cm at 586 nm and quantum yield of less than 0.36 at 607 nm. Without wishing to be bound by theory, it is believed that the time-dependent increase in fluorescence and measured fluorescence at 607 nm is the result of reduction/oxidation of fluorocoxib Q1 in the DMSO/EtOH solution (FIG. 16).
Fluorometry. Steady state fluorescence excitation and emission spectra were determined for each compound with a Spex 1681 Fluorolog spectrofluorometer, equipped with a 450 W xenon arc lamp. […]

The target in a further data set is T1, ovine COX-1 (Ovis aries, UniProt P05979).
T1 sequence (P05979 25-600): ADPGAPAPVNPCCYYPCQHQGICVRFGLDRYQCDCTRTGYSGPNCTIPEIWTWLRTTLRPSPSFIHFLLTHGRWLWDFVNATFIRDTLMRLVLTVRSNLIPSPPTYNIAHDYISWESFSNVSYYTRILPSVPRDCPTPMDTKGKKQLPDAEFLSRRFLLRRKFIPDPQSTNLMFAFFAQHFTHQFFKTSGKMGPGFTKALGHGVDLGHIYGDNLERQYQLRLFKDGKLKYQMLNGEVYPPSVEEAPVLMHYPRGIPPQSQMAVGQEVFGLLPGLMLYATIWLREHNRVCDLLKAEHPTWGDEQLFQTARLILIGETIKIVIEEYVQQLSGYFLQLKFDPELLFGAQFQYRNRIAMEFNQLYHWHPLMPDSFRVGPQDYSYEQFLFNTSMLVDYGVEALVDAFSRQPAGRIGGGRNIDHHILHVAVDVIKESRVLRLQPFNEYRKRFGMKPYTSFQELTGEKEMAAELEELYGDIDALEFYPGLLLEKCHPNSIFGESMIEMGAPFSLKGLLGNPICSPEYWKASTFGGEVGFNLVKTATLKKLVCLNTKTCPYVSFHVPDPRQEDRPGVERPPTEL
Kind of data set: In vitro purified COX-1 inhibition assay (TLC, 14C-arachidonic acid). It is filed as biochemical. On the procedure: (§1) The in vitro cyclooxygenase (ovine COX-1 or human COX-2) inhibitory activities of these probes were tested by a previously described TLC assay (FIGS. 19-21). Briefly, reaction mixtures of 200 μL consisted of hematin-reconstituted protein in 100 mM Tris-HCl, pH 8.0, 500 μM phenol, and [1-^14C]arachidonic acid (50 μM, about 55-57 mCi/mmol, Perkin Elmer).
Inhibition Assay Using Purified COX-1 and COX-2. Inhibition of purified ovine COX-1 or mouse COX-2 by test compounds was assayed by a previously described method, which quantifies the conversion of [1-^14C]arachidonic acid to [1-^14C]prostaglandin products. Reaction mixtures of 200 ∝L consisted of hematin-reconstituted protein in 100 mM Tris-HCl, pH 8.0, 500 μM phenol, and [1-^14C]arachidonic acid (50 μM, ˜55-57 mCi/mmol, Perkin Elmer). […] Reactions were terminated by solvent extraction in diethyl ether:methanol:1 M citrate buffer, pH 4.0 (30:4:1). The phases were separated by centrifugation at 2000 g for 2 min, and the organic phase was spotted on a thin-layer chromatography plate (EMD Kieselgel 60, VWR). The plate was developed in ethyl acetate:methylene chloride:glacial AcOH (75:25:1) at 4° C. Radiolabeled products were quantified with a radioactivity scanner (Bioscan, Inc., Washington, D.C.).

The next data set has as its target T2, murine COX-2 (Mus musculus, UniProt Q05769).
T2 sequence (Q05769 18-604): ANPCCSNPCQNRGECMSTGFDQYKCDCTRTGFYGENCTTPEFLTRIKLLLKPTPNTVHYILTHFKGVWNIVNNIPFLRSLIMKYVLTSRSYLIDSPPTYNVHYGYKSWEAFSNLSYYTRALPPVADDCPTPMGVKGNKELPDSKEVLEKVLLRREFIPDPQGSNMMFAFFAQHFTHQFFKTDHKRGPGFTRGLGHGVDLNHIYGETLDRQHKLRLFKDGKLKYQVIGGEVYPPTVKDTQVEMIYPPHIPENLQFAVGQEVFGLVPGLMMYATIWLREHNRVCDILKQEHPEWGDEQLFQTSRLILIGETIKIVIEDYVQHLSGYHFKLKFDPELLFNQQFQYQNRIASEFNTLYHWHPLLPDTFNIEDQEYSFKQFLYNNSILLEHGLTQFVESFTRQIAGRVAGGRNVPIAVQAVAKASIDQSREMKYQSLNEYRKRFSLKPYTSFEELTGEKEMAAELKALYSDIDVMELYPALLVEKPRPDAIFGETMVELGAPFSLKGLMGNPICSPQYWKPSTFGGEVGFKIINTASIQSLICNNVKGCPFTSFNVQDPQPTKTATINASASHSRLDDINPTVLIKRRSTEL
Kind of data set: In vitro purified COX-2 inhibition assay (TLC, 14C-arachidonic acid). As to conditions: for COX-2 Selectivity Index (COX-1 IC50/COX-2 IC50): in vitro, purified enzymes. It is filed as biochemical. Here is the method:
as §1
Inhibition Assay Using Purified COX-1 and COX-2. Inhibition of purified ovine COX-1 or mouse COX-2 by test compounds was assayed by a previously described method, which quantifies the conversion of [1-^14C]arachidonic acid to [1-^14C]prostaglandin products. Reaction mixtures of 200 ∝L consisted of hematin-reconstituted protein in 100 mM Tris-HCl, pH 8.0, 500 μM phenol, and [1-^14C]arachidonic acid (50 μM, ˜55-57 mCi/mmol, Perkin Elmer). For the time-dependent inhibition assay, hematin-reconstituted COX-1 ([…]) was preincubated at 25° C. for 17 min and 37° C. for 3 min with varying inhibitor concentrations in dimethylsulfoxide followed by the addition of [1-^14C]arachidonic acid (50 μM) for 30 s at 37° C. Reactions were terminated by solvent extraction in diethyl ether:methanol:1 M citrate buffer, pH 4.0 (30:4:1). The phases were separated by centrifugation at 2000 g for 2 min, and the organic phase was spotted on a thin-layer chromatography plate (EMD Kieselgel 60, VWR). The plate was developed in ethyl acetate:methylene chloride:glacial AcOH (75:25:1) at 4° C. Radiolabeled products were quantified with a radioactivity scanner (Bioscan, Inc., Washington, D.C.).

The next data set has as its target T3, hCOX-2 in 1483 cells (Homo sapiens, UniProt P35354).
T3 construct: cells that express high levels of COX-2 were selected; endogenous in cells; host or cells: 1483 human head and neck squamous cell carcinoma (HNSCC) cells
T3 sequence (P35354 18-604): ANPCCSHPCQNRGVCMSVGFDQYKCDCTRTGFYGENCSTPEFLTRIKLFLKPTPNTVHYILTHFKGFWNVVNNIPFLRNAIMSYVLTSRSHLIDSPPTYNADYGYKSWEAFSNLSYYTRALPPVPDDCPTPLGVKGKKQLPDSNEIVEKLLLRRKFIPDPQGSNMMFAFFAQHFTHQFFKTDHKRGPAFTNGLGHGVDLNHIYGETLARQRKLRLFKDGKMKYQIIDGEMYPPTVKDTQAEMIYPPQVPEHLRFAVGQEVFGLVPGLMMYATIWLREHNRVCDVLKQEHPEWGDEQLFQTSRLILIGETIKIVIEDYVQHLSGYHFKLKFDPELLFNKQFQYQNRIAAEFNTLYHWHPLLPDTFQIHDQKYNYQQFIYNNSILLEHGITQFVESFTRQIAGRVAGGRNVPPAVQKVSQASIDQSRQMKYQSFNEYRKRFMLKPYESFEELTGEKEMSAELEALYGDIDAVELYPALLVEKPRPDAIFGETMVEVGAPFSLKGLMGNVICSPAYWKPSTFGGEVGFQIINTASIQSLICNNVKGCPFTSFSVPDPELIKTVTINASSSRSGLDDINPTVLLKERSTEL
The experiment in a line: Intact cell COX-2 inhibition assay in 1483 HNSCC cells. The class given is cell-based. The note with it: high throughput screening, intact cancer cells; read-out: COX-2 positive 1483 HNSCC cells IC50. On the procedure: Following the promising results from the purified enzyme assay, the ability of compound 1 to inhibit COX-2 in intact cells was examined using a previously reported method. 1483 human head and neck squamous cell carcinoma (1483 HNSCC) cells that express high levels of COX-2 were selected. […]
Cell Culture and In Vitro Intact Cell Metabolism Assay. Inhibition of COX-2 in intact cells by test compounds was assayed by a previously described method. Human 1483 head and neck squamous cell carcinoma (HNSCC) cells (passage 8-18, mycoplasma negative by a polymerase chain reaction detection method) were cultured in DMEM/F12+10% fetal bovine serum+Antibiotic/Antimycotic in 6-well plates to 60% confluence. […] Reactions were terminated and analyzed by thin layer chromatography as described above.

The test system of data set [2] is 4T1 orthotopic breast cancer xenografts. Kind of data set: In vivo image-guidance of chemocoxib A delivery, orthotopic 4T1 breast cancer xenografts. As to conditions: tumor homogenate, LC-MS, 49 h after CA-FQ-NPs (1 mg/kg CA, 1 mg/kg FQ, s.c.).
Procedure: To generate orthotopic breast cancer xenografts, the 4T1 tumor cells (1×10^6 in 200 μL sterile PBS) were injected into the inguinal mammary fat-pads of athymic Balb/C nu/nu female mice (4-6 weeks old, Jax Mice). Tumors were full-grown by 4-5 weeks (tumor volume=length×width^2×0.52).
The animals were dosed with CA-FQ-NPs in PBS (1 mg/kg CA, 1 mg/kg FQ, s.c.) and imaged on a Xenogen IVIS200 optical imaging instrument at 0.5 h, 1 h, 3 h, 6 h, 28 h, and 49 h post-injection. […] After in vivo imaging, the 49 h animals group was euthanized, and brain, muscle, tumor, liver, lung, and kidney tissues were collected (FIG. 32D).
[3] abbreviates: COX-2 IC50, in vitro purified cox assay.
[4] abbreviates: mCOX-2 IC50, purified murine COX-2 (63 nM), inhibitor 20 min, then 1-14C-AA (50 μM) 37° C. 30 s, duplicates.

Broadly, the IC50 is the concentration needed to halve the response being measured.

The structures appear in SMILES notation. Read-outs that look alike come from different tables or passages of the source. A value given as a limit tells only on which side of the number the result lay.

For the molecule `O=C(O)c1ccc(C(=O)[O-])c(C2=c3cc4c5c(c3Oc3c2cc2c6c3CCCN6CCC2)CCC[N+]=5CCC4)c1` [5-ROX acid], the extinction in data set [1] (at 580 nm (5-ROX acid), 579 nm (fluorocoxib A), 586 nm (fluorocoxib Q1)) stood at 36 mM⁻¹ cm⁻¹. In data set [1] (at 604 nm (5-ROX acid), 602 nm (fluorocoxib A), 607 nm (fluorocoxib Q1)), this molecule gave a quantum yield of 0.94.
As to `COc1ccc2c(c1)c(CC(=O)NCCCCNC(=O)c1ccc(C(=O)NC3CC(C)(C)N([O])C(C)(C)C3)c(C3=c4cc5c6c(c4Oc4c3cc3c7c4CCCN7CCC3)CCC[N+]=6CCC5)c1)c(C)n2C(=O)c1ccc(Cl)cc1` [Compound 2], the IC50 on ovine COX-1 is greater than 25 µM; at murine COX-2 (setting [3]), 332 nM; against murine COX-2 (setting [4]), 330 nM. For the same molecule, at murine COX-2, the “COX-2 Selectivity Index (COX-1 IC50/COX-2 IC50)” value is greater than 75.
Regarding `COc1ccc2c(c1)c(CC(=O)NCCCCNC(=O)CCC(=O)O[C@H]1c3cc4c(cc3[C@@H](c3cc(OC)c(OC)c(OC)c3)[C@H]3C(=O)OC[C@@H]31)OCO4)c(C)n2C(=O)c1ccc(Cl)cc1` [chemocoxib A, reference compound], the IC50 at hCOX-2 in 1483 cells was found to be 200 nM. Besides, in data set [2], the “level in tumor tissue” value is on record as 3.1 pmol/g tissue.
Consider `COc1ccc2c(c1)c(CC(=O)NCCCCNC(=O)c1ccc(C3=c4cc5c6c(c4Oc4c3cc3c7c4CCCN7CCC3)CCC[N+]=6CCC5)c(C(=O)NCC3CC(C)(C)N([O])C3(C)C)c1)c(C)n2C(=O)c1ccc(Cl)cc1` (centres unmarked) [Compound 5], for which the IC50 on ovine COX-1 is greater than 25 µM; against murine COX-2 (setting [4]), 1800 nM. The “COX-2 Selectivity Index (COX-1 IC50/COX-2 IC50)” value on murine COX-2 is reported as greater than 13.
The matching figures for `COc1ccc2c(c1)c(CC(=O)NCCCCNC(=O)c1ccc(C3=c4cc5c6c(c4Oc4c3cc3c7c4CCCN7CCC3)CCC[N+]=6CCC5)c(C(=O)OC3CC(C)(C)N([O])C(C)(C)C3)c1)c(C)n2C(=O)c1ccc(Cl)cc1` [Compound 4]: greater than 25 µM, 1240 nM and greater than 20.
`COc1ccc2c(c1)c(CC(=O)NCCCCNC(=O)c1ccc(C3=c4cc5c6c(c4Oc4c3cc3c7c4CCCN7CCC3)CCC[N+]=6CCC5)c(C(=O)Nc3ccc(C(=O)OC4CC(C)(C)N([O])C(C)(C)C4)cc3)c1)c(C)n2C(=O)c1ccc(Cl)cc1` [Compound 3]: the IC50 was greater than 25 µM at ovine COX-1 and 460 nM at murine COX-2 (setting [3]). In addition, the “COX-2 Selectivity Index (COX-1 IC50/COX-2 IC50)” value at murine COX-2 is greater than 54.
As for `COc1ccc2c(c1)c(CC(=O)NCCCCNC(=O)c1ccc(C(=O)[O-])c(C3=c4cc5c6c(c4Oc4c3cc3c7c4CCCN7CCC3)CCC[N+]=6CCC5)c1)c(C)n2C(=O)c1ccc(Cl)cc1` [Fluorocoxib B, reference compound], the IC50 at ovine COX-1 (purified ovine COX-1 (22.5 nM), inhibitor 20 min, then 1-14C-AA (50 μM) 37° C. 30 s, duplicates, read-out: oCOX-1 IC50) is greater than 25 µM; on murine COX-2 (purified murine COX-2 (63 nM), inhibitor 20 min, then 1-14C-AA (50 μM) 37° C. 30 s, duplicates, read-out: mCOX-2 IC50) it was 800 nM. At murine COX-2, the “COX-2 Selectivity Index (COX-1 IC50/COX-2 IC50)” value was greater than 31.
